Data reported in patent US5488060A, “Substituted thiadiazoles, compositions containing them and their use as antimicrobial and marine antifouling agents” (The Dow Chemical Company, priority 1994, dated 1996).
≈ marks a conversion by molar mass, not a printed value. Read-outs that look alike come from different tables or passages of the source.

What was measured:
Type in all cases: cell-based
[1] = system: Salmonella choleraesuis (Se); test: Minimum inhibitory concentration (MIC) in nutrient agar, Salmonella choleraesuis; conditions: Salmonella enterica, 48 h
Experimental: (§1) The antimicrobial activity of the compounds of the present invention is set forth as the minimum inhibitory concentration (MIC) for the active compounds and is determined for nine (9) bacteria, using nutrient agar, and seven (7) yeast and fungi, using malt yeast agar. This determination is conducted using a one percent solution of the test compound prepared in a mixture of acetone and water.
(§2) Nutrient agar is prepared at pH 6.8, representing a neutral medium, and at pH 8.2, representing an alkaline medium. The nutrient agars are prepared by adding 23 g of nutrient agar to one-liter of deionized water. In addition, the alkaline medium is prepared by adjusting a 0.04M solution of N-[tris-(hydroxymethyl)methyl]glycine buffered deionized water with concentrated sodium hydroxide to a pH of 8.5.
(§3) The test tubes containing the agar are cooled in a water bath until the temperature of the agar is 48° C. Then, an appropriate amount of the one percent solution of the test compound is added (except in the controls where no compound is added) to the respective test tubes so that the final concentrations are 500, […], 100, 50, 25, 10, 5, 2.5, 1.0 and zero parts per million of the test compound in the agar, thus having a known concentration of test compound dispersed therein. The contents of the test tubes are then transferred to respective petri plates. After drying for 24 hours, the petri plates containing nutrient agar are inoculated with bacteria and those containing malt yeast agar are inoculated with yeast and fungi.
(§4) The inoculation with bacteria is accomplished by using the following procedure. Twenty-four hour-cultures of each of the bacteria are prepared by incubating the respective bacteria in tubes containing nutrient broth for 24 hours at 30° C. in a shaker. Dilutions of each of the 24 hour-cultures are made so that nine separate suspensions (one for each of the nine test bacteria) are made, each containing 10^8 colony forming units (CFU) per mL of suspension of a particular bacteria. Aliquots of 0.3 mL of each of the bacterial suspensions are used to fill the individual wells of Steer's Replicator. For each microbial suspension, 0.3 mL was used to fill three wells (i.e., three wells of 0.3 mL each) so that for the nine different bacteria, 27 wells are filled. The Steer's Replicator is then used to inoculate both the neutral and alkaline pH nutrient agar petri plates.
(§5) The inoculated petri plates are incubated at 30° C. for 48 hours and then read to determine if the test compound which is incorporated into the agar prevented growth of the respective bacteria.

[2] = system: Enterobacter aerogenes (Ea); test: Minimum inhibitory concentration (MIC) in nutrient agar, Enterobacter aerogenes; conditions: Klebsiella aerogenes, 48 h
Experimental: as §1, §2, §3, §4, §5

[3] = system: Saccharomyces cerevisiae (Sc); test: Minimum inhibitory concentration (MIC) in malt yeast agar, Saccharomyces cerevisiae; conditions: pH 5.5, malt yeast agar, 30° C., 48 hours for yeast, read-out: Minimum Inhibitory Concentration, SC
Experimental: as §1
(§6) Malt yeast agar is prepared at pH 5.5 by adding 3 g yeast extract and 45 g malt agar per liter of deionized water. The specific agar is dispensed in 30 mL aliquots into 25×200 mm test tubes, capped and autoclaved for 15 minutes at 115° C.
as §3
(§7) The inoculation with the yeast and fungi is accomplished as follows. Cultures of yeast and fungi are incubated for seven days on malt yeast agar at 30° C. These cultures are used to prepare suspensions by the following procedure. A suspension of each organism is prepared by adding 10 mL of sterile saline and 10 microliters of octylphenoxy polyethoxy ethanol to the agar slant of yeast or fungi. The sterile saline/octylphenoxy potyethoxy ethanol solution is then agitated with a sterile swab to suspend the microorganism grown on the slant. Each resulting suspension is diluted into sterile saline (1 part suspension: 9 parts sterile saline). Aliquots of these dilutions are placed in individual wells of Steer's Replicator and petri plates inoculated as previously described. The petri plates are incubated at 30° C. and read after 48 hours for yeast and 72 hours for fungi.

[4] = system: Pseudomonas aeruginosa (PRD-10); test: Minimum inhibitory concentration (MIC) in nutrient agar, Pseudomonas aeruginosa PRD-10; conditions: 48 h
Experimental: as §1, §2, §3, §4, §5

[5] = system: Aureobasidium pullulan (Ap); test: Minimum inhibitory concentration (MIC) in malt yeast agar, Aureobasidium pullulan; conditions: pH 5.5, read-out: Minimum Inhibitory Concentration, Ap
Experimental: as §1, §6, §3, §7

Aspergillus niger (An) = test: Minimum inhibitory concentration (MIC) in malt yeast agar, Aspergillus niger; conditions: pH 5.5; malt yeast agar, 30° C., 72 hours for fungi; read-out: Minimum Inhibitory Concentration, An
Experimental: as §1, §6, §3, §7

Candida albicans (Ca) = test: Minimum inhibitory concentration (MIC) in malt yeast agar, Candida albicans
Experimental: as §1, §6, §3, §7

Bacillus subtilis (Bs) = test: Minimum inhibitory concentration (MIC) in nutrient agar, Bacillus subtilis
Experimental: as §1, §2, §3, §4, §5

[6] = system: Pseudomonas aeruginosa (Pa); test: Minimum inhibitory concentration (MIC) in nutrient agar, Pseudomonas aeruginosa; conditions: 30° C., 48 hours, read-out: Minimum Inhibitory Concentration, Pa
Experimental: as §1, §2, §3, §4, §5

[7] = system: Staphylococcus aureus (Sa); test: Minimum inhibitory concentration (MIC) in nutrient agar, Staphylococcus aureus
Experimental: as §1, §2, §3, §4, §5

[8] = system: Klebsiella pneumoniae (Kp); test: Minimum inhibitory concentration (MIC) in nutrient agar, Klebsiella pneumoniae
Experimental: as §1, §2, §3, §4, §5

Proteus vulgaris (Pv) = test: Minimum inhibitory concentration (MIC) in nutrient agar, Proteus vulgaris; conditions: 48 h
Experimental: as §1, §2, §3, §4, §5

Escherichia coli (Ec) = test: Minimum inhibitory concentration (MIC) in nutrient agar, Escherichia coli; conditions: 48 h
Experimental: as §1, §2, §3, §4, §5

Trichoderma viride (Tv) = test: Minimum inhibitory concentration (MIC) in malt yeast agar, Trichoderma viride; conditions: pH 5.5; malt yeast agar, 30° C., 72 hours for fungi; read-out: Minimum Inhibitory Concentration, Tv
Experimental: as §1, §6, §3, §7

Fusarium oxysporum (Fo) = test: Minimum inhibitory concentration (MIC) in malt yeast agar, Fusarium oxysporum; conditions: pH 5.5; malt yeast agar, 30° C., 72 hours for fungi; read-out: Minimum Inhibitory Concentration, Fo
Experimental: as §1, §6, §3, §7

[9] = system: Penicillium chrysogenum (Pc); test: Minimum inhibitory concentration (MIC) in malt yeast agar, Penicillium chrysogenum
Experimental: as §1, §6, §3, §7

[10] = pH 6.8, read-out: Minimum Inhibitory Concentration, SC
[11] = pH 8.2, read-out: Minimum Inhibitory Concentration, SC
[12] = pH 6.8, read-out: Minimum Inhibitory Concentration, Ea
[13] = pH 8.2, read-out: Minimum Inhibitory Concentration, Ea
[14] = pH 6.8, read-out: Minimum Inhibitory Concentration, PRD
[15] = pH 8.2, read-out: Minimum Inhibitory Concentration, PRD
[16] = pH 5.5, malt yeast agar, 30° C., 48 hours for yeast, read-out: Minimum Inhibitory Concentration, Ca
[17] = 48 h, pH 8.2, read-out: Minimum Inhibitory Concentration, Bs
[18] = 48 h, pH 8.2, read-out: Minimum Inhibitory Concentration, Sa
[19] = pH 6.8, nutrient agar, 30° C., 48 hours, read-out: Minimum Inhibitory Concentration, Sa
[20] = 48 h, pH 8.2, read-out: Minimum Inhibitory Concentration, Kp
[21] = pH 6.8, nutrient agar, 30° C., 48 hours, read-out: Minimum Inhibitory Concentration, Kp
[22] = pH 6.8, read-out: Minimum Inhibitory Concentration, Pv
[23] = pH 8.2, read-out: Minimum Inhibitory Concentration, Pv
[24] = pH 6.8, read-out: Minimum Inhibitory Concentration, Ec
[25] = pH 8.2, read-out: Minimum Inhibitory Concentration, Ec
[26] = pH 6.8, nutrient agar, 30° C., 48 hours, read-out: Minimum Inhibitory Concentration, Bs

| SMILES | MIC [1, 10] | MIC [1, 11] | MIC [2, 12] | MIC [2, 13] | MIC [3] | MIC [4, 14] | MIC [4, 15] | MIC [5] | MIC (Aspergillus niger (An)) | MIC (Bacillus subtilis (Bs); [17]) | MIC ([6]; pH 6.8, nutrient agar) | MIC ([6]; pH 8.2, nutrient agar) | MIC [7, 18] | MIC [8, 20] | MIC [8, 21] | MIC (Proteus vulgaris (Pv); [22]) | MIC (Proteus vulgaris (Pv); [23]) | MIC (Escherichia coli (Ec); [24]) | MIC (Escherichia coli (Ec); [25]) | MIC (Trichoderma viride (Tv)) | also measured |
| --- | --- | --- | --- | --- | --- | --- | --- | --- | --- | --- | --- | --- | --- | --- | --- | --- | --- | --- | --- | --- | --- |
| COC(=O)c1ccc(-c2nsnc2SCSC#N)cc1 [Example XXVIII] | 500 µg/mL (≈ 1550 µM) | > 500 µg/mL | 500 µg/mL (≈ 1550 µM) | > 500 µg/mL | 250 µg/mL (≈ 773 µM) | 500 µg/mL (≈ 1550 µM) | > 500 µg/mL | 50 µg/mL (≈ 155 µM) | 100 µg/mL (≈ 309 µM) | 500 µg/mL (≈ 1550 µM) | 500 µg/mL (≈ 1550 µM) | > 500 µg/mL | 500 µg/mL (≈ 1550 µM) | > 500 µg/mL | 500 µg/mL (≈ 1550 µM) | 500 µg/mL (≈ 1550 µM) | > 500 µg/mL | 500 µg/mL (≈ 1550 µM) | 500 µg/mL (≈ 1550 µM) | > 500 µg/mL | MIC (Candida albicans (Ca); [16]): 500 µg/mL (≈ 1550 µM); MIC (Bacillus subtilis (Bs); 48 h, pH 6.8, read-out: Minimum Inhibitory Concentration, Bs): 500 µg/mL (≈ 1550 µM); MIC [7, 19]: 500 µg/mL (≈ 1550 µM); MIC (Fusarium oxysporum (Fo)): 250 µg/mL (≈ 773 µM) |
| N#CSc1nsnc1-c1ccc(Br)cc1 [Example VI, 4-(4-Bromophenyl)-3-thiocyanato-1,2,5-thiadiazole] | 500 µg/mL (≈ 1680 µM) | 500 µg/mL (≈ 1680 µM) | 500 µg/mL (≈ 1680 µM) | 500 µg/mL (≈ 1680 µM) | 5 µg/mL (≈ 16.8 µM) | 500 µg/mL (≈ 1680 µM) | 500 µg/mL (≈ 1680 µM) | 2.5 µg/mL (≈ 8.38 µM) | 5 µg/mL (≈ 16.8 µM) | 500 µg/mL (≈ 1680 µM) | 500 µg/mL (≈ 1680 µM) | 500 µg/mL (≈ 1680 µM) | 500 µg/mL (≈ 1680 µM) | 500 µg/mL (≈ 1680 µM) | 500 µg/mL (≈ 1680 µM) | 500 µg/mL (≈ 1680 µM) | 500 µg/mL (≈ 1680 µM) | 500 µg/mL (≈ 1680 µM) | 500 µg/mL (≈ 1680 µM) | < 1 µg/mL | MIC (Candida albicans (Ca); [16]): 5 µg/mL (≈ 16.8 µM); MIC (Bacillus subtilis (Bs); [26]): 25 µg/mL (≈ 83.8 µM); MIC ([7]; 48 h, pH 6.8, read-out: Minimum Inhibitory Concentration, Sa): 50 µg/mL (≈ 168 µM); MIC ([9]; 72 h, pH 5.5, read-out: Minimum Inhibitory Concentration, PC): 10 µg/mL (≈ 33.5 µM) |
| COc1cccc(-c2nsnc2SC#N)c1 [Example VII, a-(3-Methoxyphenyl)-3-thiocyanato-1,2,5-thiadiazole] | > 500 µg/mL | 500 µg/mL (≈ 2010 µM) | > 500 µg/mL | 500 µg/mL (≈ 2010 µM) | 5 µg/mL (≈ 20.1 µM) | > 500 µg/mL | 500 µg/mL (≈ 2010 µM) | 5 µg/mL (≈ 20.1 µM) | 10 µg/mL (≈ 40.1 µM) | 250 µg/mL (≈ 1000 µM) | > 500 µg/mL | 500 µg/mL (≈ 2010 µM) | 500 µg/mL (≈ 2010 µM) | 500 µg/mL (≈ 2010 µM) | > 500 µg/mL | > 500 µg/mL | 500 µg/mL (≈ 2010 µM) | > 500 µg/mL | 500 µg/mL (≈ 2010 µM) | 5 µg/mL (≈ 20.1 µM) | MIC (Candida albicans (Ca); 48 h, pH 5.5, read-out: Minimum Inhibitory Concentration, Ca): 50 µg/mL (≈ 201 µM); MIC (Bacillus subtilis (Bs); [26]): 25 µg/mL (≈ 100 µM); MIC [7, 19]: 250 µg/mL (≈ 1000 µM); MIC ([9]; pH 5.5, malt yeast agar, 30° C., 72 hours for fungi, read-out: Minimum Inhibitory Concentration, PC): 25 µg/mL (≈ 100 µM) |
